Consider two substances from patent publication US7208154B2, “Methods and compositions for the treatment of MHC-associated conditions” (Regents of the University of Michigan, priority 2002, dated 2007).

Like-named read-outs stand apart in the source and are kept apart here.

In assay [1] the test system is human fibroblastoid line M1 cells. The following applies: M1 cells preincubated overnight with 50 μg/ml synthetic pentapeptide.
Assay [2] deals with T1, calreticulin (Homo sapiens, UniProt P27797).
T1 sequence (P27797 18-417): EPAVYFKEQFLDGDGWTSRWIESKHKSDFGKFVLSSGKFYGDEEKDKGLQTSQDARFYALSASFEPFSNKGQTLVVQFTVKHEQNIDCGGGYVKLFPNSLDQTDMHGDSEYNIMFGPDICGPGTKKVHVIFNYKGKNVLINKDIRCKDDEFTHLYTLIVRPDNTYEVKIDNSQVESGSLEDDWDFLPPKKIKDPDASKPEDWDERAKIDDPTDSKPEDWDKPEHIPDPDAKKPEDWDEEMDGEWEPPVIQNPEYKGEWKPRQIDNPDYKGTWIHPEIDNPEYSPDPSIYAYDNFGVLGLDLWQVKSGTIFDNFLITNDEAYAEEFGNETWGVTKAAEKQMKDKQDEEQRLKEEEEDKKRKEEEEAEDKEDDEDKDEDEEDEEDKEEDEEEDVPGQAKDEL
The assay can be described thus: Blocking of shared epitope peptide-triggered signaling (cAMP-inhibitory effect, genoprotection) in M1 cells. It is filed as cell-based. The following applies: M1 cells pre-incubated or transfected. On the set-up: endogenous in cells; host or cells: M1 human fibroblastoid cells. As to the method:
Finally, in order to determine whether these neuroprotective peptides transduce their signaling through calreticulin, two complementing protocols were executed: i) Inhibition of peptide-calreticulin interaction using anti-calreticulin antibodies, or ii) blocking calreticulin expression with antisense oligonucleotides (as shown in FIG. 13C and FIG. 13D).
M1 cells were cultured in 6-well plate to 60–70% confluency. M1 cells were treated by 0.2 μM antisense oligonucleotide for 24 to 48 hr, using Lipofectin as a carrier. Calreticulin expression levels were determined by Western-blot and flow cytometry, using anti-calreticulin antibodies. Polyclonal rabbit anti-human calreticulin antibodies were obtained from ABR, Golden, CO.

Gln Lys Arg Ala Glu (QKRAE): the “Inhibition of cAMP-dependent (2CA-induced) DNA repair induction / genoprotective pathway by pentapeptide” value in assay [1] was “failed to do so”.
For the substance DKCLA [Asp Lys Cys Leu Ala], the “Inhibition of cAMP-dependent (2CA-induced) DNA repair induction / genoprotective pathway by pentapeptide” value was “biologically inactive” in assay [1] and “failed to do so” in assay [1] (listed as #7). Further, the “Block of shared epitope peptide-triggered signaling / inhibitory effect on genoprotection” value in assay [2] is “prevented”.
